Data: patent publication US8137718B2, “Probiotic infant products” (Mead Johnson Nutrition Company, priority 2008, dated 2012)

tested on: B. longum AH1205; experiment: Minimum inhibitory concentration (MIC) of antibiotics for the B. longum strain; format: cell-based, Bifidobacterium longum; conditions: against the B. longum strain AH1205
Method: Antibiotic sensitivity profiles of the B. longum strain were determined using the “disc susceptibility” assay. Cultures were grown in the appropriate broth medium for 24-48 hours, spread-plated (100 μl) onto agar media, and discs containing known concentrations of the antibiotics were placed onto the agar. Strains were examined for antibiotic sensitivity after 1-2 days incubation at 37° C. under anaerobic conditions. Strains were considered sensitive if zones of inhibition of 1 mm or greater were seen. The minimum inhibitory concentration (MIC) for each antibiotic was independently assessed.

SMILES	minimum inhibitory concentration (MIC)
CCC[C@@H]1C[C@@H](C(=O)N[C@@H]([C@H]2O[C@H](SC)[C@H](O)[C@@H](O)[C@H]2O)[C@H](C)Cl)N(C)C1 [clindamycin]	0.032
Cc1ncc([N+](=O)[O-])n1CCO [metronidazole]	> 256
CN[C@H](CC(C)C)C(=O)N[C@H]1C(=O)N[C@@H](CC(N)=O)C(=O)N[C@H]2C(=O)N[C@H]3C(=O)N[C@H](C(=O)N[C@H](C(=O)O)c4cc(O)cc(O)c4-c4cc3ccc4O)[C@H](O)c3ccc(c(Cl)c3)Oc3cc2cc(c3O[C@@H]2O[C@H](CO)[C@@H](O)[C@H](O)[C@H]2O[C@H]2C[C@](C)(N)[C@H](O)[C@H](C)O2)Oc2ccc(cc2Cl)[C@H]1O [vancomycin]	0.75
